According to patent US20220356186A1, “PERK INHIBITING PYRROLOPYRIMIDINE COMPOUNDS” (HiberCell, Inc., priority 2019, published 2022):
pIC50: −log10 of the molar value. Where two headings read alike, the source gives them in different places.

Tests used:
[1] = tested on: GFP-eIF2α in HEK293 cells; assay: PERK cellular assay, TR-FRET in HEK293-EGFP-eIF2a cells after tunicamycin-induced ER stress; format: cell-based; conditions: HEK293-EGFP-eIF2a cells, tunicamycin 2 hours, read-out: Cellular eIF2α IC50
How it was run: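 HEK293 cells stably expressing GFP-eIF2α, plated 5000 cells/well overnight, pretreated with inhibitors 30 min at 37 °C, then ER stress induced with tunicamycin […] for 2 h.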

[2] = target: T1, EIF2AK3 (PERK) catalytic domain (amino acids 536-1116) (Homo sapiens, UniProt Q9NZJ5); assay: PERK in vitro activity assay (isolated), TR-FRET kinase assay; format: biochemical; conditions: isolated PERK enzyme, 1.5 μM ATP; read-out: Biochemical IC50
T1 construct: EIF2AK3 (PERK) catalytic domain (amino acids 536-1116)
T1 sequence (Q9NZJ5 536-1116): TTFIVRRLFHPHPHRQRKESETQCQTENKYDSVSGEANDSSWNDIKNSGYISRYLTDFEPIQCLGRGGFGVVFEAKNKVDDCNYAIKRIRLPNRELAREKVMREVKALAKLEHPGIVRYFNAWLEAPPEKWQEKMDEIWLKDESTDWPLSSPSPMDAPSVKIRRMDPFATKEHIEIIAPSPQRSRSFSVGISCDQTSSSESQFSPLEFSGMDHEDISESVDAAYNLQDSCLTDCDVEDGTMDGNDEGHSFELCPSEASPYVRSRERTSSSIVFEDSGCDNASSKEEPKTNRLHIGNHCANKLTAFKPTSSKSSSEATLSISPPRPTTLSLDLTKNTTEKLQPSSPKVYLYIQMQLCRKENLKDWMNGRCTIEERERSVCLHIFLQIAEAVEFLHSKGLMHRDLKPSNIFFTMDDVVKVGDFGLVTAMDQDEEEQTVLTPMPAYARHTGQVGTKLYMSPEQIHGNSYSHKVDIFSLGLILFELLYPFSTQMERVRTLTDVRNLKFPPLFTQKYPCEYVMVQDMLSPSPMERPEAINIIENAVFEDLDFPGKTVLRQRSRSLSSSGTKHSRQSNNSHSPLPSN
How it was run: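 Human PERK catalytic domain (aa 536-1116) phosphorylating 100-200 nM GFP-eIF2a in 50 mM HEPES pH 7.5, 10 mM MgCl2, 1 mM EGTA, 0.01% Brij-35; enzyme-started, 45 min at room temperature. Stopped with 10 mM EDTA, 2 nM Tb-anti-phospho-eIF2a added for 90 min; IC50 from TR-FRET ratios by 4-parameter logistic fit.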

pIC50 [2]	Compound	pIC50 [1]	pIC50 ([1]; Homo sapiens, HEK293, 2 h)
7.60 to 9.00	Cc1nc(N)c2c(-c3ccc(NC(=O)C(O)c4cccc(F)c4)cc3C(F)(F)F)cn(C)c2n1 (centres unmarked) [Example 19, N-(4-(4-amino-2,7-dimethyl-7H-pyrrolo[2,3-d]pyrimidin-5-yl)-3-(trifluoromethyl)phenyl)-2-(3-fluorophenyl)-2-hydroxyacetamide]	6.60 to 7.00	
7.00 to 7.29	CCc1cccc(C(O)C(=O)Nc2ccc(-c3cn(C)c4nc(C)nc(N)c34)c(Cl)c2)c1 (centres unmarked) [Example 98, N-(4-(4-amino-2,7-dimethyl-7H-pyrrolo[2,3-d]pyrimidin-5-yl)-3-chlorophenyl)-2-(3-ethylphenyl)-2-hydroxyacetamide]	6.30 to 6.60	
7.60 to 9.00	Cc1cc(NC(=O)C(O)c2ccccc2F)ccc1-c1cn(C)c2ncnc(N)c12 (centres unmarked) [Example 31, N-(4-(4-amino-7-methyl-7H-pyrrolo[2,3-d]pyrimidin-5-yl)-3-methylphenyl)-2-(2-fluorophenyl)-2-hydroxyacetamide]		7.30 to 7.59
6.00 to 6.30	Cc1nc(N)c2c(-c3ccc(NC(=O)C(O)c4cccc(F)c4)nc3C)cn(C)c2n1 (centres unmarked) [Example 128, N-(5-(4-amino-2,7-dimethyl-7H-pyrrolo[2,3-d]pyrimidin-5-yl)-6-methylpyridin-2-yl)-2-(3-fluorophenyl)-2-hydroxyacetamide]	< 5.30	
7.60 to 9.00	Cc1nc(N)c2c(-c3ccc(NC(=O)C(O)c4cc(F)cc(F)c4)c(F)c3F)cn(C)c2n1 (single isomer, unassigned) [Example 113, N-(4-(4-amino-2,7-dimethyl-7H-pyrrolo[2,3-d]pyrimidin-5-yl)-2,3-difluorophenyl)-2-(3,5-difluorophenyl)-2-hydroxyacetamide]	7.60 to 9.00	
6.30 to 6.60	Cc1nc(N)c2c(-c3ccc(NC(=O)C(O)c4cccc(F)c4)c(F)c3)cn(C)c2n1 (centres unmarked) [Example 89, N-(4-(4-amino-2,7-dimethyl-7H-pyrrolo[2,3-d]pyrimidin-5-yl)-2-fluorophenyl)-2-(3-fluorophenyl)-2-hydroxyacetamide]	5.52 to 5.70	
7.60 to 9.00	Cc1nc(N)c2c(-c3ccc(NC(=O)C(O)c4cccc(C(F)(F)F)c4)c(F)c3F)cn(C)c2n1 (centres unmarked) [Example 107, N-(4-(4-amino-2,7-dimethyl-7H-pyrrolo[2,3-d]pyrimidin-5-yl)-2,3-difluorophenyl)-2-hydroxy-2-(3-(trifluoromethyl)phenyl)acetamide]	7.60 to 9.00	
6.60 to 7.00	Cc1nc(N)c2c(-c3ccc(NC(=O)C(O)c4cccc(F)c4)cc3OC(F)(F)F)cn(C)c2n1 (single isomer, unassigned) [Example 22, N-(4-(4-amino-2,7-dimethyl-7H-pyrrolo[2,3-d]pyrimidin-5-yl)-3-(trifluoromethoxy)phenyl)-2-(3-fluorophenyl)-2-hydroxyacetamide]	< 5.30	
6.60 to 7.00	Cc1nc(N)c2c(-c3ccc(NC(=O)C(O)c4cccc5c4OCC5)cc3C)cn(C)c2n1 (centres unmarked) [Example 63, N-(4-(4-amino-2,7-dimethyl-7H-pyrrolo[2,3-d]pyrimidin-5-yl)-3-methylphenyl)-2-(2,3-dihydrobenzofuran-7-yl)-2-hydroxyacetamide]		5.52 to 5.70
7.60 to 9.00	Cc1nc(N)c2c(-c3ccc(NC(=O)C(O)c4ccccc4C)cc3Cl)cn(C)c2n1 (centres unmarked) [Example 94, N-(4-(4-amino-2,7-dimethyl-7H-pyrrolo[2,3-d]pyrimidin-5-yl)-3-chlorophenyl)-2-hydroxy-2-(o-tolyl)acetamide]	7.00 to 7.29	
6.60 to 7.00	CCc1cc(NC(=O)C(O)c2cccc(F)c2)ccc1-c1cn(C)c2nc(C)nc(N)c12 (centres unmarked) [Example 69, N-(4-(4-amino-2,7-dimethyl-7H-pyrrolo[2,3-d]pyrimidin-5-yl)-3-ethylphenyl)-2-(3-fluorophenyl)-2-hydroxyacetamide]	5.52 to 5.70	
7.60 to 9.00	Cc1cc(NC(=O)C(O)c2cccc(F)c2)ccc1-c1cn(C)c2ncnc(N)c12 (centres unmarked) [Example 11, N-(4-(4-amino-7-methyl-7H-pyrrolo[2,3-d]pyrimidin-5-yl)-3-methylphenyl)-2-(3-fluorophenyl)-2-hydroxyacetamide]	7.60 to 9.00	
7.60 to 9.00	Cc1nc(N)c2c(-c3cnc(NC(=O)C(O)c4cccc(C(F)(F)F)c4)cc3C)cn(C)c2n1 (centres unmarked) [Example 132, N-(5-(4-amino-2,7-dimethyl-7H-pyrrolo[2,3-d]pyrimidin-5-yl)-4-methylpyriidn-2-yl)-2-hydroxy-2-(3-(trifluoromethyl)phenyl)acetamide]	7.00 to 7.29	
6.60 to 7.00	Cc1nc(N)c2c(-c3ccc(NC(=O)C(O)c4cccc(C(F)(F)F)c4)nc3C)cn(C)c2n1 (centres unmarked) [Example 130, N-(5-(4-amino-2,7-dimethyl-7H-pyrrolo[2,3-d]pyrimidin-5-yl)-6-methylpyridin-2-yl)-2-hydroxy-2-(3-(trifluoromethyl)phenyl)acetamide]	5.70 to 6.00	
7.00 to 7.29	CCc1cccc(C(O)C(=O)Nc2ccc(-c3cn(C)c4nc(C)nc(N)c34)c(F)c2)c1 (centres unmarked) [Example 75, N-(4-(4-amino-2,7-dimethyl-7H-pyrrolo[2,3-d]pyrimidin-5-yl)-3-fluorophenyl)-2-(3-ethylphenyl)-2-hydroxyacetamide]	5.70 to 6.00	
7.00 to 7.29	Cc1nc(N)c2c(-c3ccc(NC(=O)C(O)c4cccc(C(F)(F)F)n4)cc3C)cn(C)c2n1 (centres unmarked) [Example 62, N-(4-(4-amino-2,7-dimethyl-7H-pyrrolo[2,3-d]pyrimidin-5-yl)-3-methylphenyl)-2-hydroxy-2-(6-(trifluoromethyl)pyridin-2-yl)acetamide]	5.52 to 5.70	
7.00 to 7.29	COc1ccc(CC(=O)Nc2ccc(-c3cn(C)c4ncnc(N)c34)c(C)c2)cc1 [Example 141, N-(4-(4-amino-7-methyl-7H-pyrrolo[2,3-d]pyrimidin-5-yl)-3-methylphenyl)-2-(4-methoxyphenyl)acetamide]		6.30 to 6.60
6.30 to 6.60	Cc1nc(N)c2c(-c3cnc(NC(=O)C(O)c4cccc(F)c4)cc3C)cn(C)c2n1 (centres unmarked) [Example 133, N-(5-(4-amino-2,7-dimethyl-7H-pyrrolo[2,3-d]pyrimidin-5-yl)-4-methylpyridin-2-yl)-2-(3-fluorophenyl)-2-hydroxyacetamide]	5.30 to 5.40	
7.60 to 9.00	Cc1cc(NC(=O)C(O)c2ccccc2)ccc1-c1cn(C)c2ncnc(N)c12 (centres unmarked) [Example 5, N-(4-(4-amino-7-methyl-7H-pyrrolo[2,3-d]pyrimidin-5-yl)-3-methylphenyl)-2-hydroxy-2-phenylacetamide]	7.30 to 7.59	
7.00 to 7.29	Cc1cc(NC(=O)CC2CCC2)ccc1-c1cn(C)c2ncnc(N)c12 [Example 164, N-(4-(4-amino-7-methyl-7H-pyrrolo[2,3-d]pyrimidin-5-yl)-3-methylphenyl)-2-cyclobutyl-acetamide]		5.52 to 5.70
7.30 to 7.59	Cc1c(-c2cn(C)c3ncnc(N)c23)ccc(NC(=O)C(O)c2cccc(F)c2)c1F (centres unmarked) [Example 118, N-(4-(4-amino-7-methyl-7H-pyrrolo[2,3-d]pyrimidin-5-yl)-2-fluoro-3-methylphenyl)-2-(3-fluorophenyl)-2-hydroxyacetamide]	6.30 to 6.60	
7.60 to 9.00	Cc1nc(N)c2c(-c3cc(F)c(NC(=O)C(O)c4cccc(F)c4)cc3C)cn(C)c2n1 (single isomer, unassigned) [Example 121, N-(4-(4-amino-2,7-dimethyl-7H-pyrrolo[2,3-d]pyrimidin-5-yl)-2-fluoro-5-methylphenyl)-2-(3-fluorophenyl)-2-hydroxyacetamide]	7.30 to 7.59	
7.60 to 9.00	CCc1cc(NC(=O)C(O)c2cccc(F)c2)ccc1-c1cn(C)c2nc(C)nc(N)c12 (centres unmarked) [Example 68, N-(4-(4-amino-2-2,7-dimethyl-7H-pyrrolo[2,3-d]pyrimidin-5-yl)-3-ethylphenyl)-2-(3-fluorophenyl)-2-hydroxyacetamide]	7.30 to 7.59	
7.60 to 9.00	CCc1cccc(C(O)C(=O)Nc2ccc(-c3cn(C)c4nc(C)nc(N)c34)c(C)c2)c1 (centres unmarked) [Example 43, N-(4-(4-amino-2,7-dimethyl-7H-pyrrolo[2,3-d]pyrimidin-5-yl)-3-methylphenyl)-2-(3-ethylphenyl)-2-hydroxyacetamide]	7.60 to 9.00	
7.60 to 9.00	Cc1cc(NC(=O)C(O)c2ccccc2C)ccc1-c1cn(C)c2ncnc(N)c12 (centres unmarked) [Example 39, N-(4-(4-amino-7-methyl-7H-pyrrolo[2,3-d]pyrimidin-5-yl)-3-methylphenyl)-2-hydroxy-2-(o-tolyl)acetamide]		7.30 to 7.59
